Laboratory results: ChEMBL document CHEMBL1201862, “PubChem BioAssay data set” (2004)
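96-well plates; 48 h exposure; 5 concentrations. Endpoints by linear interpolation between flanking doses. Not reached: highest tested concentration assigned. Abbreviation: GI50, concentration required for 50% inhibition of growth.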 Calls of active or inactive are those of the source. No stated cut-off is given here; in the data, active = GI50 up to about 1.1 µM and inactive = higher.

How the values were obtained:
Test in all cases: NCI tumour cell line growth inhibition, 48 h
CCRF-CEM = system: CCRF-CEM
UO-31 = system: UO-31
U-251 = system: U-251
SW-620 = system: SW-620
HL-60 = system: HL-60
786-0 = system: 786-0
HCC 2998 = system: HCC 2998
OVCAR-5 = system: OVCAR-5
RPMI-8226 = system: RPMI-8226
SK-MEL-2 = system: SK-MEL-2
SR = system: SR
HCT-116 = system: HCT-116
HOP-92 = system: HOP-92
SF-539 = system: SF-539
OVCAR-4 = system: OVCAR-4
M14 = system: M14
SK-MEL-5 = system: SK-MEL-5
NCI-H522 = system: NCI-H522
A498 = system: A498
PC-3 = system: PC-3

Measured: GI50

NC1CCCCC1.O=C(O)C(CP(=O)(O)O)=C(Cl)Cl
inactive: CCRF-CEM > 100 µM | UO-31 > 100 µM | U-251 > 100 µM | SW-620 > 100 µM | HL-60 > 100 µM | 786-0 > 100 µM | HCC 2998 > 100 µM | OVCAR-5 > 100 µM | RPMI-8226 > 100 µM | SK-MEL-2 > 100 µM | SR > 100 µM | HCT-116 > 100 µM | HOP-92 > 100 µM | SF-539 > 100 µM

Cc1c(C(=O)C/C(=N\O)C(=O)Nc2cc(Cl)c(Cl)cc2Cl)[n+]([O-])c2ccccc2[n+]1[O-]
inactive: CCRF-CEM 32.7 µM | UO-31 24.3 µM | U-251 11 µM | SW-620 2.9 µM | HL-60 16.1 µM | 786-0 22.2 µM | HCC 2998 7.06 µM | OVCAR-4 9.53 µM | OVCAR-5 24.4 µM | M14 4.5 µM | RPMI-8226 9.33 µM | SK-MEL-5 5.47 µM | SK-MEL-2 15.2 µM | SR 24.2 µM | HCT-116 4.85 µM | NCI-H522 3.96 µM | A498 19.9 µM | HOP-92 19.2 µM | SF-539 14.3 µM

C=CCN1C(=O)C(=O)N(CC=C)C(=O)C1=O
inactive: CCRF-CEM > 100 µM | UO-31 > 100 µM | U-251 > 100 µM | SW-620 > 100 µM | HL-60 > 100 µM | 786-0 > 100 µM | HCC 2998 > 100 µM | OVCAR-4 > 100 µM | OVCAR-5 > 100 µM | M14 > 100 µM | RPMI-8226 > 100 µM | SK-MEL-5 > 100 µM | SR > 100 µM | HCT-116 > 100 µM | NCI-H522 > 100 µM | A498 > 100 µM | HOP-92 > 100 µM | SF-539 > 100 µM

CN(C)CCC[N+]1=Nc2cccc3cccc(c23)N1
inactive: CCRF-CEM 29.9 µM | UO-31 96.4 µM | U-251 60 µM | SW-620 10.4 µM | HL-60 18.2 µM | 786-0 49.8 µM | HCC 2998 24.2 µM | OVCAR-4 47.1 µM | OVCAR-5 > 100 µM | M14 21.1 µM | RPMI-8226 22.8 µM | SK-MEL-5 14.1 µM | SK-MEL-2 > 100 µM | SR 16.9 µM | HCT-116 44.6 µM | NCI-H522 38 µM | A498 27.4 µM | HOP-92 66.7 µM | SF-539 99.5 µM

COc1ccc(C2[C@@H](Cl)C(=O)N2c2ccc(OC)cc2)cc1 (stereo not given in full)
inactive: CCRF-CEM 39.1 µM | UO-31 56.8 µM | U-251 > 100 µM | SW-620 > 100 µM | HL-60 20.4 µM | 786-0 36.6 µM | HCC 2998 > 100 µM | OVCAR-5 > 100 µM | RPMI-8226 98.6 µM | SK-MEL-5 > 100 µM | SK-MEL-2 62.5 µM | SR 40.5 µM | HCT-116 18.6 µM | NCI-H522 36 µM | A498 12.2 µM | HOP-92 11.6 µM | SF-539 19.8 µM

COc1ccc(N2C(=O)C3c4[nH]c5ccc(OC)cc5c4C4CCC(C(C)(C)C)CC4C3C2=O)cc1 (stereo not given)
inactive: CCRF-CEM 58.6 µM | UO-31 > 100 µM | U-251 17.5 µM | SW-620 93.5 µM | HL-60 43 µM | 786-0 16.8 µM | HCC 2998 45.3 µM | OVCAR-4 4.71 µM | OVCAR-5 > 100 µM | M14 19.9 µM | RPMI-8226 57.1 µM | SK-MEL-5 21.1 µM | SK-MEL-2 17.5 µM | SR 17.4 µM | HCT-116 10.5 µM | NCI-H522 20.7 µM | A498 19.6 µM | HOP-92 10.7 µM | SF-539 12.8 µM

Cc1c2c(ccc3ccccc32)c[n+]2ccccc12
inactive: CCRF-CEM 11 µM | UO-31 20.9 µM | U-251 2.03 µM | SW-620 5.5 µM | HL-60 28.4 µM | 786-0 10.1 µM | HCC 2998 9.46 µM | OVCAR-4 12 µM | OVCAR-5 55.7 µM | M14 19.7 µM | RPMI-8226 32.1 µM | SK-MEL-5 3.56 µM | SK-MEL-2 15.8 µM | SR 4.16 µM | HCT-116 21.8 µM | NCI-H522 4.79 µM | HOP-92 40.6 µM | SF-539 13.9 µM

N=c1c2ccccc2sc2nc3ccccc3n12
inactive: CCRF-CEM > 100 µM | UO-31 > 100 µM | U-251 > 100 µM | SW-620 > 100 µM | HL-60 > 100 µM | 786-0 97.5 µM | HCC 2998 > 100 µM | OVCAR-4 33.9 µM | OVCAR-5 > 100 µM | SK-MEL-5 > 100 µM | SK-MEL-2 > 100 µM | SR > 100 µM | NCI-H522 71.3 µM | A498 > 100 µM | HOP-92 > 100 µM | SF-539 > 100 µM

CC/N=C(/C#N)NCC
inactive: CCRF-CEM 75.2 µM | UO-31 > 100 µM | U-251 96.4 µM | SW-620 18.7 µM | HL-60 > 100 µM | 786-0 63 µM | HCC 2998 > 100 µM | OVCAR-4 > 100 µM | OVCAR-5 > 100 µM | M14 > 100 µM | RPMI-8226 30.4 µM | SK-MEL-5 > 100 µM | SK-MEL-2 > 100 µM | SR > 100 µM | HCT-116 > 100 µM | NCI-H522 > 100 µM | A498 > 100 µM | HOP-92 > 100 µM | SF-539 > 100 µM

COc1ccc(C(=O)Nc2ccccc2C#N)cc1
inactive: CCRF-CEM > 100 µM | U-251 > 100 µM | SW-620 > 100 µM | HL-60 54.6 µM | 786-0 > 100 µM | OVCAR-4 > 100 µM | OVCAR-5 > 100 µM | RPMI-8226 > 100 µM | SK-MEL-5 > 100 µM | SK-MEL-2 > 100 µM | SR > 100 µM | HCT-116 > 100 µM | A498 > 100 µM | HOP-92 > 100 µM | SF-539 > 100 µM

Cn1c(C2CCCc3c2c2ccccc2n3C)cc2ccccc21 (stereo not given)
inactive: CCRF-CEM 140 µM | U-251 174 µM | SW-620 78 µM | HL-60 65.5 µM | 786-0 > 318 µM | HCC 2998 186 µM | OVCAR-5 136 µM | SK-MEL-5 72.9 µM | SK-MEL-2 85.7 µM | SR 71.9 µM | HCT-116 142 µM | NCI-H522 40.4 µM | HOP-92 1.5 µM | SF-539 > 318 µM

CC(Nc1ccc(Cl)cc1)c1ccncc1 (stereo not given)
inactive: CCRF-CEM 83.9 µM | UO-31 63.1 µM | U-251 > 100 µM | SW-620 > 100 µM | 786-0 > 100 µM | HCC 2998 > 100 µM | OVCAR-4 > 100 µM | OVCAR-5 > 100 µM | M14 > 100 µM | RPMI-8226 12.4 µM | SK-MEL-5 36.6 µM | PC-3 64.1 µM | SK-MEL-2 > 100 µM | HCT-116 53.3 µM | NCI-H522 69.5 µM | A498 81.7 µM | SF-539 > 100 µM
